One block for each compound: values may come before it.
Columns and labels:
Escherichia coli = assay: Antimicrobial activity against uropathogenic Escherichia coli infected in chronic mouse cystitis model assessed as reduction in bacterial levels at 100 mg/kg, po administered as single dose relative to untreated control; format: functional
[1] = Stability in mouse urinary bladder assessed as unchanged drug level at 100 mg/kg, po; format: ADME, organism-based; settings: in vivo
Mus musculus [2] = assay: Time duration maintaining effective drug urine level in mouse at 10 mg/kg, ip; format: ADME, organism-based; settings: in vivo
Mus musculus [3] = assay: Time duration maintaining >10 mM urine level in mouse at 50 mg/kg, po; format: ADME, organism-based; settings: in vivo
[4] = Binding affinity to Pseudomonas aeruginosa LecA
[5] = Binding affinity to Pseudomonas aeruginosa LecB
[6] = Inhibition of Pseudomonas aeruginosa LecA by ELISA method
Streptococcus suis = assay: […] of Streptococcus suis by hemagglutination inhibition assay; format: functional, organism-based

Stability [1]: > 95%
Time (Mus musculus [2]): 8 h
SMILES: CNC(=O)c1cc(C(=O)NC)cc(-c2ccc(O[C@H]3O[C@H](CO)[C@@H](O)[C@H](O)[C@@H]3O)cc2)c1
fold change (FC) (Escherichia coli): 3

Time (Mus musculus [3]): 6 h
SMILES: CNC(=O)c1cc(C(=O)NC)cc(-c2ccc(O[C@H]3O[C@H](CO)[C@@H](O)[C@H](O)[C@@H]3O)c(C)c2)c1

Kd [4]: 4200 nM
SMILES: CC(C)C[C@H](NC(=O)[C@@H]1CCCN1C(=O)[C@H](CCCCN)NC(=O)c1ccc(O[C@@H]2O[C@H](CO)[C@H](O)[C@H](O)[C@H]2O)cc1)C(N)=O

Kd [4]: 5800 nM
SMILES: [N-]=[N+]=NCC(=O)Nc1ccc(O[C@@H]2O[C@H](CO)[C@H](O)[C@H](O)[C@H]2O)cc1

Kd [4]: 4200 nM
SMILES: OC[C@H]1O[C@@H](Oc2ccc3ccccc3c2)[C@H](O)[C@@H](O)[C@H]1O

Kd [5]: 290 nM
SMILES: COC(=O)c1cn([C@@H]2O[C@H](CO)[C@@H](O[C@@H]3O[C@H](C)[C@@H](O)[C@@H](O)[C@@H]3O)[C@H](O)[C@H]2NC(C)=O)nn1

Kd [5]: 3300 nM
SMILES: CO[C@H]1O[C@H](CNS(=O)(=O)c2c(C)cc(C)cc2C)[C@@H](O)[C@H](O)[C@@H]1O

Kd [4]: 90 nM
SMILES: CC(C)(C)c1cc2c(Oc3cn(CC(=O)NCCOCCO[C@@H]4O[C@H](CO)[C@H](O)[C@H](O)[C@H]4O)nn3)c(c1)Cc1cc(C(C)(C)C)cc(c1Oc1cn(CC(=O)NCCOCCO[C@@H]3O[C@H](CO)[C@H](O)[C@H](O)[C@H]3O)nn1)Cc1cc(C(C)(C)C)cc(c1Oc1cn(CC(=O)NCCOCCO[C@@H]3O[C@H](CO)[C@H](O)[C@H](O)[C@H]3O)nn1)Cc1cc(C(C)(C)C)cc(c1Oc1cn(CC(=O)NCCOCCO[C@@H]3O[C@H](CO)[C@H](O)[C@H](O)[C@H]3O)nn1)C2

Kd [4]: 79 nM
SMILES: O=C(Cn1cc(CCC(=O)N[C@H]2[C@@H]3OC[C@H]4O[C@@H](OC[C@H]5O[C@@H](OC[C@H]6O[C@@H](OC[C@@H](O3)[C@@H](O)[C@@H]2O)[C@H](NC(=O)CCc2cn(CC(=O)Nc3ccc(O[C@@H]7O[C@H](CO)[C@H](O)[C@H](O)[C@H]7O)cc3)nn2)[C@@H](O)[C@@H]6O)[C@H](NC(=O)CCc2cn(CC(=O)Nc3ccc(O[C@@H]6O[C@H](CO)[C@H](O)[C@H](O)[C@H]6O)cc3)nn2)[C@@H](O)[C@@H]5O)[C@H](NC(=O)CCc2cn(CC(=O)Nc3ccc(O[C@@H]5O[C@H](CO)[C@@H](O)[C@H](O)[C@H]5O)cc3)nn2)[C@@H](O)[C@@H]4O)nn1)Nc1ccc(O[C@@H]2O[C@H](CO)[C@@H](O)[C@H](O)[C@H]2O)cc1

IC50 [6]: 3500 nM
SMILES: OC[C@H]1O[C@@H](OCc2cn([C@H]3[C@H](O)[C@@H](O)[C@H](n4cc([C@@H]5O[C@H](CO)[C@@H](n6cc(CO[C@@H]7O[C@H](CO)[C@H](O)[C@H](O)[C@H]7O)nn6)[C@H](O)[C@H]5O)nn4)O[C@@H]3CO)nn2)[C@H](O)[C@@H](O)[C@H]1O

IC50 [6]: 840 nM
SMILES: OC[C@H]1O[C@@H](OCc2cn([C@H]3[C@H](O)[C@@H](O)[C@H](c4cn([C@H]5[C@H](O)[C@@H](O)[C@H](n6cc([C@@H]7O[C@H](CO)[C@@H](n8cc([C@@H]9O[C@H](CO)[C@@H](n%10cc(CO[C@@H]%11O[C@H](CO)[C@H](O)[C@H](O)[C@H]%11O)nn%10)[C@H](O)[C@H]9O)nn8)[C@H](O)[C@H]7O)nn6)O[C@@H]5CO)nn4)O[C@@H]3CO)nn2)[C@H](O)[C@@H](O)[C@H]1O

SMILES: COc1ccc(O[C@@H]2O[C@H](CO)[C@H](O[C@H]3O[C@H](CO)[C@H](O)[C@H](NC(=O)Nc4ccccc4)[C@H]3O)[C@H](O)[C@H]2O)cc1
IC50 (Streptococcus suis): 30 nM

SMILES: COCO[C@H]1[C@@H](O[C@@H]2[C@H](O)[C@@H](O)[C@H](Oc3ccc(OC)cc3)O[C@@H]2CO)O[C@H](CO)[C@H](O)[C@@H]1O
IC50 (Streptococcus suis): 50 nM

SMILES: O=C(CCSCC(CSCCC(=O)NCCO[C@@H]1O[C@H](CO)[C@H](O[C@H]2O[C@H](CO)[C@H](O)[C@H](O)[C@H]2O)[C@H](O)[C@H]1O)(CSCCC(=O)NCCO[C@@H]1O[C@H](CO)[C@H](O[C@H]2O[C@H](CO)[C@H](O)[C@H](O)[C@H]2O)[C@H](O)[C@H]1O)CSCCC(=O)NCCO[C@@H]1O[C@H](CO)[C@H](O[C@H]2O[C@H](CO)[C@H](O)[C@H](O)[C@H]2O)[C@H](O)[C@H]1O)NCCO[C@@H]1O[C@H](CO)[C@H](O[C@H]2O[C@H](CO)[C@H](O)[C@H](O)[C@H]2O)[C@H](O)[C@H]1O
IC50 (Streptococcus suis): 2 nM

SMILES: COC(=O)c1cc(OCCNC(=O)c2cc(OCCNC(=O)COCC(=O)NCCO[C@@H]3O[C@H](CO)[C@H](O[C@H]4O[C@H](CO)[C@H](O)[C@H](O)[C@H]4O)[C@H](O)[C@H]3O)cc(OCCNC(=O)COCC(=O)NCCO[C@@H]3O[C@H](CO)[C@H](O[C@H]4O[C@H](CO)[C@H](O)[C@H](O)[C@H]4O)[C@H](O)[C@H]3O)c2)cc(OCCNC(=O)c2cc(OCCNC(=O)COCC(=O)NCCO[C@@H]3O[C@H](CO)[C@H](O[C@H]4O[C@H](CO)[C@H](O)[C@H](O)[C@H]4O)[C@H](O)[C@H]3O)cc(OCCNC(=O)COCC(=O)NCCO[C@@H]3O[C@H](CO)[C@H](O[C@H]4O[C@H](CO)[C@H](O)[C@H](O)[C@H]4O)[C@H](O)[C@H]3O)c2)c1
IC50 (Streptococcus suis): 0.3 nM

SMILES: COc1ccc(O[C@@H]2O[C@H](CO)[C@H](O[C@H]3O[C@H](CO)[C@H](O)[C@H](O)[C@H]3O)[C@H](O)[C@H]2O)cc1
IC50 (Streptococcus suis): 310 nM

Kd [4]: 6300 nM
SMILES: OC[C@H]1O[C@@H](Sc2ccc3ccccc3c2)[C@H](O)[C@@H](O)[C@H]1O

Kd [5]: 210 nM
SMILES: CC(=O)N[C@H]1C(O)O[C@H](CO)[C@@H](O[C@@H]2O[C@@H](C)[C@@H](O)[C@@H](O)[C@@H]2O)[C@@H]1O[C@@H]1O[C@H](CO)[C@H](O)[C@H](O)[C@H]1O (stereo partly drawn)

Kd [4]: 28 nM
IC50 [6]: 2.7 nM
SMILES: OC[C@H]1O[C@@H](OCc2cn([C@H]3[C@H](O)[C@@H](O)[C@H](c4cn([C@H]5[C@H](O)[C@@H](O)[C@H](n6cc([C@@H]7O[C@H](CO)[C@@H](n8cc(CO[C@@H]9O[C@H](CO)[C@H](O)[C@H](O)[C@H]9O)nn8)[C@H](O)[C@H]7O)nn6)O[C@@H]5CO)nn4)O[C@@H]3CO)nn2)[C@H](O)[C@@H](O)[C@H]1O

Kd [4]: 87500 nM
SMILES: O=C[C@H](O)[C@@H](O)[C@@H](O)[C@H](O)CO [GALACTOSE]

— ChEMBL document CHEMBL3588834, “Towards bacterial adhesion-based therapeutics and detection methods” (Medchemcomm, 2014)
